# Test results published in PubChem BioAssay (NCI).
#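 Assay format: 96-well plates, 48-hour exposure. TGI is the concentration that stops growth completely.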
# Key:
# Assay in all cases: NCI anticancer screen, dose series, 48 h
# 786-0 renal = system: 786-0 renal
# A498 renal = system: A498 renal
# A549 NSCLC = system: A549 NSCLC
# ACHN renal = system: ACHN renal
# BT-549 breast = system: BT-549 breast
# CAKI-1 renal = system: CAKI-1 renal
# CCRF-CEM leukemia = system: CCRF-CEM leukemia
# COLO 205 colon = system: COLO 205 colon
# DU-145 prostate = system: DU-145 prostate
# EKVX NSCLC = system: EKVX NSCLC
# HCC-2998 colon = system: HCC-2998 colon
# HCT-116 colon = system: HCT-116 colon
# HCT-15 colon = system: HCT-15 colon
# HL-60(TB) leukemia = system: HL-60(TB) leukemia
# HOP-62 NSCLC = system: HOP-62 NSCLC
# HOP-92 NSCLC = system: HOP-92 NSCLC
# HS 578T breast = system: HS 578T breast
# HT29 colon = system: HT29 colon
# IGROV1 ovarian = system: IGROV1 ovarian
# K-562 leukemia = system: K-562 leukemia
# KM12 colon = system: KM12 colon
# LOX IMVI melanoma = system: LOX IMVI melanoma
# M14 melanoma = system: M14 melanoma
# MALME-3M melanoma = system: MALME-3M melanoma
# MCF7 breast = system: MCF7 breast
# MDA-MB-231 breast = system: MDA-MB-231 breast
# MDA-MB-435 = system: MDA-MB-435
# MDA-N = system: MDA-N
# MOLT-4 leukemia = system: MOLT-4 leukemia
# NCI-H226 lung = system: NCI-H226 lung
# NCI-H460 lung = system: NCI-H460 lung
# NCI-H522 lung = system: NCI-H522 lung
# NCI/ADR-RES ovarian = system: NCI/ADR-RES ovarian
# OVCAR-3 ovarian = system: OVCAR-3 ovarian
# OVCAR-4 ovarian = system: OVCAR-4 ovarian
# OVCAR-5 ovarian = system: OVCAR-5 ovarian
# OVCAR-8 ovarian = system: OVCAR-8 ovarian
# PC-3 prostate = system: PC-3 prostate
# RPMI-8226 leukemia = system: RPMI-8226 leukemia
# RXF 393 renal = system: RXF 393 renal
# SF-268 CNS = system: SF-268 CNS
# SF-295 CNS = system: SF-295 CNS
# SF-539 CNS = system: SF-539 CNS
# SK-MEL-2 melanoma = system: SK-MEL-2 melanoma
# SK-MEL-28 melanoma = system: SK-MEL-28 melanoma
# SK-MEL-5 melanoma = system: SK-MEL-5 melanoma
# SK-OV-3 ovarian = system: SK-OV-3 ovarian
# SN12C renal = system: SN12C renal
# SNB-19 CNS = system: SNB-19 CNS
# SNB-75 CNS = system: SNB-75 CNS
# SR leukemia = system: SR leukemia
# SW-620 colon = system: SW-620 colon
# T-47D breast = system: T-47D breast
# TK-10 renal = system: TK-10 renal
# U251 CNS = system: U251 CNS
# UACC-257 melanoma = system: UACC-257 melanoma
# UACC-62 melanoma = system: UACC-62 melanoma
# UO-31 renal = system: UO-31 renal
# NCI-H23 lung = system: NCI-H23 lung
smiles,measurement,setting,value
O=C1c2ccccc2C(=O)c2c(OCC3CO3)ccc(OCC3CO3)c21 (configuration not stated),TGI,786-0 renal,6.48 µM
same,TGI,A498 renal,> 47.5 µM
same,TGI,A549 NSCLC,22.2 µM
same,TGI,ACHN renal,6.63 µM
same,TGI,BT-549 breast,15.5 µM
same,TGI,CAKI-1 renal,10.6 µM
same,TGI,CCRF-CEM leukemia,0.393 µM
same,TGI,COLO 205 colon,9.34 µM
same,TGI,DU-145 prostate,13.3 µM
same,TGI,EKVX NSCLC,35.5 µM
same,TGI,HCC-2998 colon,> 46.3 µM
same,TGI,HCT-116 colon,11.5 µM
same,TGI,HCT-15 colon,4.5 µM
same,TGI,HL-60(TB) leukemia,2.18 µM
same,TGI,HOP-62 NSCLC,7.09 µM
same,TGI,HOP-92 NSCLC,10.7 µM
same,TGI,HS 578T breast,36.8 µM
same,TGI,HT29 colon,15.1 µM
same,TGI,IGROV1 ovarian,10.8 µM
same,TGI,K-562 leukemia,5.96 µM
same,TGI,KM12 colon,11.4 µM
same,TGI,LOX IMVI melanoma,0.515 µM
same,TGI,M14 melanoma,4.78 µM
same,TGI,MALME-3M melanoma,20 µM
same,TGI,MCF7 breast,2.59 µM
same,TGI,MDA-MB-231 breast,> 34 µM
same,TGI,MDA-MB-435,7.61 µM
same,TGI,MDA-N,23.8 µM
same,TGI,MOLT-4 leukemia,0.95 µM
same,TGI,NCI-H226 lung,35.9 µM
same,TGI,NCI-H460 lung,8.86 µM
same,TGI,NCI-H522 lung,13 µM
same,TGI,NCI/ADR-RES ovarian,8.73 µM
same,TGI,OVCAR-3 ovarian,10.7 µM
same,TGI,OVCAR-4 ovarian,30.9 µM
same,TGI,OVCAR-5 ovarian,30.9 µM
same,TGI,OVCAR-8 ovarian,5.94 µM
same,TGI,PC-3 prostate,12 µM
same,TGI,RPMI-8226 leukemia,19.8 µM
same,TGI,RXF 393 renal,8.31 µM
same,TGI,SF-268 CNS,2.29 µM
same,TGI,SF-295 CNS,11.8 µM
same,TGI,SF-539 CNS,9.02 µM
same,TGI,SK-MEL-2 melanoma,27.8 µM
same,TGI,SK-MEL-28 melanoma,12 µM
same,TGI,SK-MEL-5 melanoma,15.5 µM
same,TGI,SK-OV-3 ovarian,36.2 µM
same,TGI,SN12C renal,4.74 µM
same,TGI,SNB-19 CNS,27.2 µM
same,TGI,SNB-75 CNS,29.9 µM
same,TGI,SR leukemia,1.55 µM
same,TGI,SW-620 colon,5.68 µM
same,TGI,T-47D breast,24.1 µM
same,TGI,TK-10 renal,53.1 µM
same,TGI,U251 CNS,12.1 µM
same,TGI,UACC-257 melanoma,19.4 µM
same,TGI,UACC-62 melanoma,7.95 µM
same,TGI,UO-31 renal,10.4 µM
O=C(NO)c1cccc(OCc2ccc(Br)cc2)c1,TGI,786-0 renal,10.9 µM
same,TGI,A498 renal,32.2 µM
same,TGI,A549 NSCLC,> 58.5 µM
same,TGI,ACHN renal,12.8 µM
same,TGI,BT-549 breast,> 100 µM
same,TGI,CAKI-1 renal,15 µM
same,TGI,CCRF-CEM leukemia,> 20 µM
same,TGI,COLO 205 colon,27.4 µM
same,TGI,DU-145 prostate,13.7 µM
same,TGI,EKVX NSCLC,> 79.3 µM
same,TGI,HCC-2998 colon,28.4 µM
same,TGI,HCT-116 colon,15.2 µM
same,TGI,HCT-15 colon,> 100 µM
same,TGI,HL-60(TB) leukemia,21.9 µM
same,TGI,HOP-62 NSCLC,52.8 µM
same,TGI,HOP-92 NSCLC,46.7 µM
same,TGI,HS 578T breast,75.4 µM
same,TGI,HT29 colon,35.8 µM
same,TGI,IGROV1 ovarian,35 µM
same,TGI,K-562 leukemia,> 47.5 µM
same,TGI,KM12 colon,> 64.9 µM
same,TGI,LOX IMVI melanoma,> 34.8 µM
same,TGI,M14 melanoma,20.1 µM
same,TGI,MALME-3M melanoma,17.6 µM
same,TGI,MCF7 breast,> 65 µM
same,TGI,MDA-MB-231 breast,86.3 µM
same,TGI,MDA-MB-435,38.7 µM
same,TGI,MDA-N,27.5 µM
same,TGI,MOLT-4 leukemia,18.3 µM
same,TGI,NCI-H226 lung,27.6 µM
same,TGI,NCI-H23 lung,17.7 µM
same,TGI,NCI-H460 lung,14 µM
same,TGI,NCI-H522 lung,16.2 µM
same,TGI,NCI/ADR-RES ovarian,28.4 µM
same,TGI,OVCAR-3 ovarian,> 48.1 µM
same,TGI,OVCAR-4 ovarian,> 100 µM
same,TGI,OVCAR-5 ovarian,> 70.7 µM
same,TGI,OVCAR-8 ovarian,17.4 µM
same,TGI,PC-3 prostate,49.9 µM
same,TGI,RPMI-8226 leukemia,24.3 µM
same,TGI,RXF 393 renal,25.6 µM
same,TGI,SF-268 CNS,38.1 µM
same,TGI,SF-295 CNS,> 62.1 µM
same,TGI,SF-539 CNS,> 41.4 µM
same,TGI,SK-MEL-2 melanoma,50 µM
same,TGI,SK-MEL-28 melanoma,> 100 µM
same,TGI,SK-MEL-5 melanoma,> 27.2 µM
same,TGI,SK-OV-3 ovarian,> 55.7 µM
same,TGI,SN12C renal,12.8 µM
same,TGI,SNB-19 CNS,> 46.4 µM
same,TGI,SNB-75 CNS,> 54.1 µM
same,TGI,SR leukemia,37.3 µM
same,TGI,SW-620 colon,> 100 µM
same,TGI,T-47D breast,23.9 µM
same,TGI,TK-10 renal,> 100 µM
same,TGI,U251 CNS,> 53.8 µM
same,TGI,UACC-257 melanoma,> 100 µM
same,TGI,UACC-62 melanoma,20.6 µM
same,TGI,UO-31 renal,14.4 µM
CC(C)=CCNc1ncnc2c1ncn2CCC(=O)OC(C)(C)C,TGI,786-0 renal,> 100 µM
same,TGI,A498 renal,> 100 µM
same,TGI,A549 NSCLC,> 100 µM
same,TGI,ACHN renal,> 100 µM
same,TGI,BT-549 breast,> 100 µM
same,TGI,CCRF-CEM leukemia,> 100 µM
same,TGI,COLO 205 colon,> 100 µM
same,TGI,DU-145 prostate,> 100 µM
same,TGI,HCC-2998 colon,> 100 µM
same,TGI,HCT-116 colon,> 100 µM
same,TGI,HCT-15 colon,> 100 µM
same,TGI,HL-60(TB) leukemia,> 100 µM
same,TGI,HOP-62 NSCLC,> 100 µM
same,TGI,HOP-92 NSCLC,> 100 µM
same,TGI,HS 578T breast,> 100 µM
same,TGI,HT29 colon,> 100 µM
same,TGI,IGROV1 ovarian,> 100 µM
same,TGI,K-562 leukemia,> 100 µM
same,TGI,KM12 colon,> 100 µM
same,TGI,LOX IMVI melanoma,> 100 µM
same,TGI,M14 melanoma,> 100 µM
same,TGI,MALME-3M melanoma,> 100 µM
same,TGI,MCF7 breast,> 100 µM
same,TGI,MDA-MB-231 breast,> 100 µM
same,TGI,MDA-MB-435,> 100 µM
same,TGI,MDA-N,> 100 µM
same,TGI,MOLT-4 leukemia,> 100 µM
same,TGI,NCI-H226 lung,> 100 µM
same,TGI,NCI-H23 lung,> 100 µM
same,TGI,NCI-H460 lung,> 100 µM
same,TGI,NCI-H522 lung,> 100 µM
same,TGI,NCI/ADR-RES ovarian,> 100 µM
same,TGI,OVCAR-3 ovarian,> 100 µM
same,TGI,OVCAR-4 ovarian,40.4 µM
same,TGI,OVCAR-5 ovarian,> 100 µM
same,TGI,OVCAR-8 ovarian,> 100 µM
same,TGI,PC-3 prostate,> 100 µM
same,TGI,RPMI-8226 leukemia,> 100 µM
same,TGI,RXF 393 renal,> 100 µM
same,TGI,SF-268 CNS,> 100 µM
same,TGI,SF-295 CNS,> 100 µM
same,TGI,SF-539 CNS,> 100 µM
same,TGI,SK-MEL-28 melanoma,> 100 µM
same,TGI,SK-MEL-5 melanoma,70 µM
same,TGI,SK-OV-3 ovarian,> 100 µM
same,TGI,SN12C renal,> 100 µM
same,TGI,SNB-19 CNS,> 100 µM
same,TGI,SNB-75 CNS,> 100 µM
same,TGI,SR leukemia,> 100 µM
same,TGI,SW-620 colon,> 100 µM
same,TGI,T-47D breast,> 100 µM
same,TGI,TK-10 renal,> 100 µM
same,TGI,U251 CNS,> 100 µM
same,TGI,UACC-62 melanoma,> 100 µM
same,TGI,UO-31 renal,> 100 µM
